Data: PubChem BioAssay (NCI)
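Method: 48-hour compound exposure of cells in 96-well plates, five concentrations, linear interpolation of endpoints. The concentration for 50% growth inhibition is given as GI50. TGI denotes the concentration required for complete inhibition of growth.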

Columns and labels:
Assay in all cases: inhibition of tumour cell growth, NCI panel, 48 h
[1] = tested on: MOLT-4 leukemia
[2] = tested on: NCI/ADR-RES ovarian
[3] = tested on: MDA-N
[4] = tested on: KM12 colon
[5] = tested on: NCI-H23 lung
[6] = tested on: SK-MEL-28 melanoma
[7] = tested on: BT-549 breast
[8] = tested on: T-47D breast

Compound | TGI [1] | TGI [2] | TGI [3] | TGI [4] | TGI [5] | TGI [6] | TGI [7] | GI50 [2] | GI50 [6] | GI50 [8] | TGI [8] | GI50 [1] | GI50 [4] | GI50 [5] | GI50 [7]
COc1cccc(C(=O)C#Cc2cnc(OC)nc2OC)c1 | 0.7 µM | 4.83 µM | 3 µM | 18.7 µM | 5.5 µM | 4.22 µM | 2.63 µM | – | – | – | – | – | – | – | –
COc1cc(O)c2c(=O)c(OC)c(-c3ccc(OC)c(OC)c3)oc2c1 | – | > 100 µM | > 100 µM | – | – | 51.6 µM | – | 62.7 µM | 18 µM | 31.1 µM | > 100 µM | – | – | – | –
C=C(C)[C@@H]1CC[C@]2(C(=O)OC)CC[C@]3(C)[C@H](CC[C@@H]4[C@@]5(C)CC[C@H](O)C(C)(C)[C@@H]5CC[C@]43C)[C@@H]12 | 44.6 µM | 51.7 µM | 42.7 µM | > 100 µM | > 100 µM | 47.2 µM | – | – | – | – | 34 µM | – | – | – | –
O=c1[nH]c(Nc2nc3ccccc3[nH]2)nc(O)c1Cc1ccccc1 | > 100 µM | > 100 µM | > 100 µM | > 100 µM | > 100 µM | > 100 µM | > 100 µM | – | – | – | > 100 µM | – | – | – | –
CC(=O)OCC1OC(OCCCOP(=S)(OCCC#N)OCC2OC(n3ccc(N)nc3=O)C(OC(=O)c3ccccc3)C2OC(=O)c2ccccc2)C(OC(C)=O)C(OC(C)=O)C1OC(C)=O (stereo unspecified) | > 100 µM | > 100 µM | > 100 µM | > 100 µM | > 100 µM | > 100 µM | > 100 µM | – | – | – | > 100 µM | – | – | – | –
CN(CCCNC(=O)c1cc(-c2ccccc2)nc2ccccc12)CCCNC(=O)c1cc(-c2ccccc2)nc2ccccc12 | 5.33 µM | 11.1 µM | 3.28 µM | 4.75 µM | 16.1 µM | 3.27 µM | 26.8 µM | – | – | – | 9.92 µM | – | – | – | –
CCN(CCN(CC)C(=O)Nc1ccccc1)C(=O)Nc1ccccc1 | > 100 µM | > 100 µM | – | – | > 100 µM | > 100 µM | > 100 µM | – | – | – | > 100 µM | – | – | – | –
O=C1Cc2c([nH]c3ccc(C(=O)O)cc23)-c2ccccc2N1 | > 100 µM | > 100 µM | > 100 µM | > 100 µM | > 100 µM | > 100 µM | > 100 µM | – | – | – | > 100 µM | – | – | – | –
CC[C@@]1(O)C(=O)OCc2c1cc1n(c2=O)Cc2c-1nc1ccccc1c2/C=N\NC(=O)C(N)CCSC (stereo partly specified) | – | 23.9 µM | > 100 µM | – | 0.0526 µM | > 100 µM | – | – | – | – | – | – | – | – | –
O=C(c1ccco1)N(C(=O)N1CCN(c2ccccc2)CC1)S(=O)(=O)c1ccccc1 | 49.1 µM | 55.1 µM | 49.6 µM | > 100 µM | 53.2 µM | > 100 µM | 87.6 µM | – | – | – | 61 µM | – | – | – | –
CCC1C(c2ccccc2O)c2cc3c(cc2OC1N1CCOCC1)OCO3 (stereo unspecified) | 27 µM | – | 28.6 µM | 27.7 µM | 34.5 µM | 33.9 µM | 29.3 µM | – | – | – | 28.8 µM | – | – | – | –
NC(Cc1ccc(S(=O)(=O)O)cc1)C(=O)NC(Cc1ccc(S(=O)(=O)O)cc1)C(=O)NC(Cc1ccc(S(=O)(=O)O)cc1)C(=O)NC(Cc1ccc(S(=O)(=O)O)cc1)C(=O)O (stereo unspecified) | > 100 µM | > 100 µM | > 100 µM | > 100 µM | > 100 µM | > 100 µM | > 100 µM | – | – | – | > 100 µM | – | – | – | –
CCN(CC)C1Oc2cc3c(cc2C(c2cccc(OC)c2OC)C1C)OCO3 (stereo unspecified) | 23.7 µM | – | 50.5 µM | 29.5 µM | 35.7 µM | 50.6 µM | 23.6 µM | – | – | – | 28.5 µM | – | – | – | –
C=C1CC[C@@H](C)[C@](C)(CCc2ccoc2)C/C=C\C=C/1C(=O)O | 95.8 µM | > 100 µM | 66.1 µM | > 100 µM | > 100 µM | 48.6 µM | 49.1 µM | – | – | – | – | – | – | – | –
COC(=O)C1CCC(=O)N1C(c1ccc2c(c1)OCO2)c1cc(OC)c(OC)c(OC)c1 (stereo unspecified) | > 100 µM | – | > 100 µM | > 100 µM | > 100 µM | > 100 µM | > 100 µM | – | – | – | – | – | – | – | –
COc1ccc(C2=NOC(N)(c3ccc(OC)cc3)C2)cc1 (stereo unspecified) | > 100 µM | > 100 µM | > 100 µM | > 100 µM | > 100 µM | > 100 µM | > 100 µM | – | – | – | – | – | – | – | –
N#C/C(C(=S)NCc1ccccc1)=C(/N)N1CCCC1 | > 100 µM | > 100 µM | > 100 µM | > 100 µM | > 100 µM | > 100 µM | – | – | – | – | > 100 µM | – | – | – | –
Nc1nc2c(C(=O)O)c3ccc([N+](=O)[O-])cc3c(=O)n2c2ccccc12 | > 100 µM | 52.4 µM | > 100 µM | > 100 µM | 64.9 µM | > 100 µM | 95.9 µM | – | – | – | 68.9 µM | – | – | – | –
COC(=O)C(Cc1c[nH]c2ccccc12)N=C1Nc2ccncc2S(=O)(=O)N1c1cccc(OC(C)C)c1 (stereo unspecified) | 75.8 µM | > 100 µM | > 100 µM | > 100 µM | 85.8 µM | > 100 µM | > 100 µM | – | – | – | > 100 µM | – | – | – | –
O=C(O)c1ccccc1N=Nc1c(O)c(S(=O)(=O)O)cc2cc(S(=O)(=O)O)ccc12 | > 100 µM | – | > 100 µM | > 100 µM | > 100 µM | > 100 µM | – | – | – | – | > 100 µM | – | – | – | –
N#Cc1nc(C#N)n(S(=O)(=O)c2ccccc2)c1NS(=O)(=O)c1ccccc1 | > 100 µM | > 100 µM | > 100 µM | > 100 µM | > 100 µM | > 100 µM | > 100 µM | – | – | – | > 100 µM | – | – | – | –
CCOC(=O)C1CCCCN1C(=O)Cc1c[nH]c2ccccc12 (stereo unspecified) | > 100 µM | > 100 µM | > 100 µM | > 100 µM | > 100 µM | > 100 µM | > 100 µM | – | – | – | > 100 µM | – | – | – | –
COc1ccc(CNc2cc(=O)n(C)c(=O)[nH]2)cc1 | > 100 µM | > 100 µM | > 100 µM | > 100 µM | > 100 µM | > 100 µM | > 100 µM | – | – | – | > 100 µM | – | – | – | –
c1ccc(CC2COC(c3cccs3)=N2)cc1 (stereo unspecified) | > 100 µM | > 100 µM | > 100 µM | > 100 µM | > 100 µM | > 100 µM | > 100 µM | – | – | – | > 100 µM | – | – | – | –
COc1ccc(Nc2ccc([N+](=O)[O-])cc2[N+](=O)[O-])cc1CN(CCCl)CCCl | 9.94 µM | – | – | 51 µM | 5.77 µM | 18.4 µM | 3.96 µM | – | 3.24 µM | 2.6 µM | 26.4 µM | 0.39 µM | 3.66 µM | 2.04 µM | 1.41 µM
